Measurements: US5939094A (priority 1996, dated 1999)
Where two headings read alike, the source gives them in different places.

Assays:
[1] = Procedure: Human skin samples were obtained from white female patients undergoing breast reduction surgery and prepared for in vitro permeation studies. Samples were stratum corneum from breasts of patients (Sample A) and (Samples B & C). A 2.0 cm^2 section of the skin tissue was placed in a Franz cell holder and maintained under phosphate buffered saline (PBS: 0.01M phosphate, 0.9% NaCl, pH 6.0) until testing. PBS (6.8 to 7.3 ml) was placed on the receptor side of the Franz cell. […] The cell was incubated at 35±1° C. A 250 μl sample was taken from the receptor medium at the following times: 0, 1/2, 1, 2, 4, and 6 hours. An equal volume of PBS was replaced each time a sample was withdrawn.
Samples were pre-filtered (0.45 μm) prior to injection. Samples (50 μl) were injected on an Altima (Alltech Associates) C18 column (15 cm×4.3 mm) with guard column. The mobile phase consisted of a 60:40 mixture of 5 mM sodium dodecylsulfate in 1 mM NH4 PO4 buffer, pH 3.0 and acetonitrile.

in vivo = details: rabbit, 0.5 mg/kg; for AUC: AUC (area under the concentration vs time curve); for MRT: MRT (mean residence time)
[2] = administered in a cream; cited from earlier work
[3] = cited from earlier work
[4] = rabbit
skin = details: rabbit, in vivo, 0.5 mg/kg
[5] = man, cited from earlier work
[6] = emulsions with apomorphine HCl and acrylic acid polymer gels, pH 7.6
Parkinson's disease = details: chronic oral levodopa, after initial 3-6 years; cited from earlier work
[7] = sc, model-dependent, subcutaneous, n=6, mean
[8] = topical or ocular, model-independent
[9] = in vivo, topical or ocular, 0.5 mg/kg
[10] = subcutaneous, 0.5 mg/kg, n=6, mean

Structure (SMILES): CN1CCc2cccc3c2[C@H]1Cc1ccc(O)c(O)c1-3 [Apomorphine, apomorphine]
- FLUX, AVERAGE [1]: 1.61 μg/cm^2 /hr
- In vitro transdermal permeation, TIME 0 hours [1]: 0
- In vitro transdermal permeation, TIME 0 hours, AVERAGE [1]: 0
- In vitro transdermal permeation, TIME 0.5 hours, AVERAGE [1]: 0.44
- In vitro transdermal permeation, TIME 1 hour, AVERAGE [1]: 2.05
- In vitro transdermal permeation, TIME 2 hours, AVERAGE [1]: 2.93
- In vitro transdermal permeation, TIME 4 hours, AVERAGE [1]: 7.03
- In vitro transdermal permeation, TIME 6 hours, AVERAGE [1]: 6.30
- CL/F (in vivo; sc): 31 ± 5 mL/min/kg
- Cmax (in vivo; sc): 331 ± 46 ng/mL
- Tmax (in vivo; sc): 25.8 min
- concentration at 4 h (in vivo; sc): 3 ± 1 ng/mL
- k el (in vivo; sc): 0.00035 s⁻¹
- AUC (in vivo; [7]): 309 ng·h/mL
- AUC (in vivo; sc, model-independent): 297 ng·h/mL
- MRT (in vivo; [7]): 52 min
- MRT (in vivo; sc, model-independent): 50 min
- Vd/F (in vivo; sc, Vd (apparent volume of distribution)): 1.45 ± 0.12 L/kg
- Vd/F (in vivo; sc, Vdss, model-dependent): 1.1 ± 0.3 L/kg
- CL/F (in vivo; topical or ocular): 37 ± 1 mL/min/kg
- Cmax (in vivo; topical or ocular): 56 ± 12 ng/mL
- Tmax (in vivo; topical or ocular): 29.4 min
- k el (in vivo; topical or ocular): 0.000233 s⁻¹
- AUC (in vivo; [8]): 104 ng·h/mL
- MRT (in vivo; [8]): 168 min
- Vd/F (in vivo; topical or ocular, Vd (apparent volume of distribution)): 2.72 ± 0.36 L/kg
- plasma levels of apomorphine [2]: No detectable plasma levels
- duration of action ([3]; Parkinson's disease, movement disorders): short duration of action
- adverse effects of oral or sublingual administration ([3]; oral or sublingual): stomatitis, and the development of buccal ulcers
- breakdown in the liver ([3]; oral or sublingual): breakdown of the drug in the liver
- Time for absorption of 10% of the drug ([4]; in vivo): 11.4 ± 3.4 min
- Time for absorption of 50% of the drug ([4]; in vivo): 105.7 ± 23.9 min
- absorption of the drug after percutaneous administration ([4]; in vivo, 0.5 mg/kg): absorption of the drug in all tested animals
- bioequivalence (F) of percutaneous route vs subcutaneous administration ([4]; in vivo, 0.5 mg/kg): 35%
- duration of the first, rapid absorption phase ([4]; in vivo, 0.5 mg/kg): 1 h
- plasma concentration between the fourth and the fifth hour ([4]; in vivo, 0.5 mg/kg): an increase in the plasma concentration
- plasma levels after removal of the gel ([4]; in vivo, 0.5 mg/kg): decreased
- time until which absorption persisted ([4]; in vivo, 0.5 mg/kg): 450 min
- Time for absorption of 10% of the drug ([4]; in vivo, sc): 4.0 ± 0.7 min
- Time for absorption of 50% of the drug ([4]; in vivo, sc): 19.9 ± 2.9 min
- absorption of the available amount of the drug after 150 minutes ([4]; in vivo, sc, 0.5 mg/kg): practically complete
- k12 (transfer rate constant) ([4]; in vivo, sc, 0.5 mg/kg): 0.005 L/min
- k13 (transfer rate constant) ([4]; in vivo, sc, 0.5 mg/kg): 0.057 L/min
- k21 (transfer rate constant) ([4]; in vivo, sc, 0.5 mg/kg): 0.027 L/min
- ka (exponent of the fitted function) ([4]; in vivo, sc, 0.5 mg/kg): 0.088 L/min
- tmax (time to peak plasma concentration) ([4]; in vivo, sc, 0.5 mg/kg): 25.8 ± 4.9 min
- α (exponent of the fitted function) ([4]; in vivo, sc, 0.5 mg/kg): 0.044 L/min
- plasma level plateau [4, 9]: 10 to 15 ng/mL
- stable mean plasma level after the second hour [4, 9]: 10 ng/mL
- tmax (time to peak plasma concentration) [4, 9]: 29.4 ± 7.8 min
- Cl, comparison of routes ([4]; subcutaneous vs percutaneous, 0.5 mg/kg): not different between the two routes
- A (coefficient of the fitted function) [4, 10]: 712 ng/mL
- B (coefficient of the fitted function) [4, 10]: 298 ng/mL
- C0 (coefficient of the fitted function) [4, 10]: 1,010 ng/ml
- local adverse effect (skin): No local adverse effect
- Vd (mean) ([5]; i.v. injection): 2 L/kg
- Vd (mean) ([5]; subcutaneous injection): 2 L/kg
- tmax (range) ([5]; subcutaneous injection): 7 to 16 min

Structure (SMILES): N[C@@H](CCC(=O)N[C@@H](CS)C(=O)NCC(=O)O)C(=O)O [glutathione]
- antioxidant suitability for apomorphine HCl emulsions and gels [6]: acceptable antioxidant

Structure (SMILES): N[C@@H](Cc1ccc(O)c(O)c1)C(=O)O [levodopa]
- patients with movement abnormalities (Parkinson's disease): 40-60 % of patients
